PubChem BioAssay AID330 (DTP/NCI, 2004)
Several values for one entry are separate records, joined by “and”; a condition that tells them apart may be missing. Equal entries are not always repeated. Toxic doses and inconclusive results are not listed. The calls were made as follows: active = survival T/C of 150% or more; inactive = T/C below 125% in these data.

Tested on: P388 leukemia ip, CD2F1 mice, survival T/C
Assay: NCI In Vivo Anticancer Drug Screen. Data for tumor model P388 Leukemia (intraperitoneal) in CD2F1 (CDF1) mice
Details: endpoint: median survival time, higher = longer survival
Method in brief: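 Mice carrying the transplanted tumor received test compound or vehicle. Survival was recorded in each group, and the value is the treated-group measurement divided by that of the vehicle-treated control group.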

[1] = dose: 50.0 mg/kg/injection, schedule: Q01DX009 (ip), vehicle: saline
[2] = dose: 100.0 mg/kg/injection, schedule: Q01DX009 (ip), vehicle: saline
[3] = dose: 200.0 mg/kg/injection, schedule: Q01DX009 (ip), vehicle: saline
[4] = dose: 50.0 mg/kg/injection, schedule: Q01DX005 (ip), vehicle: saline with Tween-80
[5] = dose: 100.0 mg/kg/injection, schedule: Q01DX005 (ip), vehicle: saline with Tween-80
[6] = dose: 200.0 mg/kg/injection, schedule: Q01DX005 (ip), vehicle: saline with Tween-80
[7] = dose: 100.0 mg/kg/injection, schedule: Q01DX001 (ip), vehicle: saline with Tween-80
[8] = dose: 200.0 mg/kg/injection, schedule: Q01DX001 (ip), vehicle: saline with Tween-80
[9] = dose: 50.0 mg/kg/injection, schedule: Q01DX005 (ip), vehicle: Klucel (hydroxypropylcellulose) (HPC)
[10] = dose: 100.0 mg/kg/injection, schedule: Q01DX005 (ip), vehicle: Klucel (hydroxypropylcellulose) (HPC)
[11] = dose: 200.0 mg/kg/injection, schedule: Q01DX005 (ip), vehicle: Klucel (hydroxypropylcellulose) (HPC)
[12] = dose: 50.0 mg/kg/injection, schedule: Q01DX009 (ip), vehicle: Klucel (hydroxypropylcellulose) (HPC)
[13] = dose: 100.0 mg/kg/injection, schedule: Q01DX009 (ip), vehicle: Klucel (hydroxypropylcellulose) (HPC)
[14] = dose: 200.0 mg/kg/injection, schedule: Q01DX009 (ip), vehicle: Klucel (hydroxypropylcellulose) (HPC)
[15] = dose: 60.0 mg/kg/injection, schedule: Q01DX005 (ip), vehicle: saline with Tween-80
[16] = dose: 120.0 mg/kg/injection, schedule: Q01DX005 (ip), vehicle: saline with Tween-80
[17] = dose: 240.0 mg/kg/injection, schedule: Q01DX005 (ip), vehicle: saline with Tween-80

Measured: T/C

C=CCNc1nc(-c2ccc(OC)c(OC)c2)cs1
inactive: dose: 100.0 mg/kg/injection, schedule: Q04DX003 (ip), vehicle: Klucel (hydroxypropylcellulose) (HPC) 100 % of control | dose: 200.0 mg/kg/injection, schedule: Q04DX003 (ip), vehicle: Klucel (hydroxypropylcellulose) (HPC) 103 % of control | dose: 400.0 mg/kg/injection, schedule: Q04DX003 (ip), vehicle: Klucel (hydroxypropylcellulose) (HPC) 100 % of control

NC(=O)N/N=C1\CSCc2ccccc21
inactive: dose: 25.0 mg/kg/injection, schedule: Q01DX009 (ip), vehicle: other 93 % of control | dose: 50.0 mg/kg/injection, schedule: Q01DX009 (ip), vehicle: other 92 % of control | dose: 100.0 mg/kg/injection, schedule: Q01DX009 (ip), vehicle: other 93 % of control | dose: 200.0 mg/kg/injection, schedule: Q01DX009 (ip), vehicle: other 99 % of control | dose: 400.0 mg/kg/injection, schedule: Q01DX009 (ip), vehicle: other 117 % of control

O=C(c1ccc(F)cc1)C1CCN(CCCn2c(=O)[nH]c3ccccc32)CC1
inactive: [1] 100 % of control | [2] 101 % of control | [3] 100 % of control

Cc1cc(OCC(=O)N/N=C/c2ccc(N(CCCl)CCCl)cc2)c2ccc(Cl)cc2n1
inactive: [1] 95 % of control and 97 % of control | [2] 97 % of control | [3] 101 % of control and 87 % of control

Cc1n[nH]c(=S)nc1C
inactive: dose: 12.5 mg/kg/injection, schedule: Q04DX003 (ip), vehicle: saline with Tween-80 100 % of control | dose: 25.0 mg/kg/injection, schedule: Q04DX003 (ip), vehicle: saline with Tween-80 93 % of control | dose: 50.0 mg/kg/injection, schedule: Q04DX003 (ip), vehicle: saline with Tween-80 100 % of control | dose: 100.0 mg/kg/injection, schedule: Q04DX003 (ip), vehicle: saline with Tween-80 95 % of control

CCCNNC(=O)c1ccncc1
inactive: [4] 100 % of control | [5] 96 % of control | [6] 105 % of control

CCCCC/C(=N\Nc1ccc([N+](=O)[O-])cc1[N+](=O)[O-])c1ccccc1
inactive: dose: 50.0 mg/kg/injection, schedule: Q01DX001 (ip), vehicle: saline with Tween-80 105 % of control | [7] 95 % of control | [8] 95 % of control

C=CCN1C(SC)=NC(=O)C1(c1ccccc1)c1ccccc1
inactive: [9] 100 % of control | [10] 104 % of control | [11] 102 % of control

CCCCN1CSC2CCCCC21 (configuration not stated)
inactive: dose: 25.0 mg/kg/injection, schedule: Q01DX005 (ip), vehicle: saline 98 % of control | dose: 50.0 mg/kg/injection, schedule: Q01DX005 (ip), vehicle: saline 111 % of control and 93 % of control | dose: 100.0 mg/kg/injection, schedule: Q01DX005 (ip), vehicle: saline 104 % of control and 111 % of control | dose: 200.0 mg/kg/injection, schedule: Q01DX005 (ip), vehicle: saline 121 % of control

O=C1C=CC(=O)c2c(O)c3c(c(O)c21)C[C@H](O)[C@H](O)[C@@H]3O
inactive: dose: 1.56 mg/kg/injection, schedule: Q04DX003 (ip), vehicle: water 98 % of control | dose: 3.13 mg/kg/injection, schedule: Q04DX003 (ip), vehicle: water 92 % of control | dose: 6.25 mg/kg/injection, schedule: Q04DX003 (ip), vehicle: water 102 % of control

CN1C(=NCCO)NS(=O)(=O)c2ccccc21
inactive: [4] 98 % of control | [5] 100 % of control | [6] 104 % of control

c1cc[n+](-[b-]2ccc3ccccc3c2)cc1
inactive: [7] 94 % of control | [8] 108 % of control | dose: 400.0 mg/kg/injection, schedule: Q01DX001 (ip), vehicle: saline with Tween-80 99 % of control

Nc1ccc2ccccc2c1[N+](=O)[O-]
inactive: [12] 105 % of control | [13] 102 % of control | [14] 113 % of control

CCN1c2ccccc2Sc2cc(C=O)ccc21
inactive: [12] 91 % of control | [13] 107 % of control | [14] 101 % of control

COc1cc(C(Nc2ncccn2)c2cc3c(cc2O)OCO3)cc(OC)c1O (configuration not stated)
inactive: [15] 105 % of control | [16] 90 % of control | [17] 90 % of control

O=C(Nc1ccc(OCC2=NCCN2)cc1)c1ccc(C(=O)Nc2ccc(OCC3=NCCN3)cc2)cc1
inactive: [4] 108 % of control | [5] 103 % of control | [6] 105 % of control

COc1cc2c(C)nc3c4cc5c(cc4ccc3c2cc1OC)OCO5
inactive: dose: 25.0 mg/kg/injection, schedule: Q01DX009 (ip), vehicle: water 108 % of control | dose: 50.0 mg/kg/injection, schedule: Q01DX009 (ip), vehicle: water 95 % of control

COc1c(Cl)ncnc1Cl
inactive: dose: 25.0 mg/kg/injection, schedule: Q01DX009 (ip), vehicle: Klucel (hydroxypropylcellulose) (HPC) 100 % of control | [12] 103 % of control | [13] 110 % of control | [14] 98 % of control

C=C1CC(O)C2C(C[Se]c3ccccc3)C(=O)O[C@@H]2C2C(=C)[C@@H](O)CC12 (some centres not stated)
inactive: [15] 96 % of control | [16] 100 % of control | [17] 99 % of control

COC1/C=C/OC2(C)Oc3c(C)c(O)c4c(O)c(c(C5SCCS5)c(O)c4c3C2=O)NC(=O)/C(C)=C\C=C\C(C)C(O)C(C)C(O)C(C)C(O)C1C (configuration not stated)
inactive: dose: 50.0 mg/kg/injection, schedule: Q01DX009 (ip), vehicle: saline with Tween-80 97 % of control | dose: 100.0 mg/kg/injection, schedule: Q01DX009 (ip), vehicle: saline with Tween-80 102 % of control | dose: 200.0 mg/kg/injection, schedule: Q01DX009 (ip), vehicle: saline with Tween-80 96 % of control

C=C(C)[C@H]1CCC23C[C@@H]4C(C[C@H]2C1(C)CCC(=O)O)C4(C)C3 (some centres not stated)
inactive: dose: 5.5 mg/kg/injection, schedule: Q01DX005 (ip), vehicle: Klucel (hydroxypropylcellulose) (HPC) 100 % of control | dose: 11.0 mg/kg/injection, schedule: Q01DX005 (ip), vehicle: Klucel (hydroxypropylcellulose) (HPC) 106 % of control | dose: 22.0 mg/kg/injection, schedule: Q01DX005 (ip), vehicle: Klucel (hydroxypropylcellulose) (HPC) 100 % of control | dose: 25.0 mg/kg/injection, schedule: Q01DX005 (ip), vehicle: Klucel (hydroxypropylcellulose) (HPC) 91 % of control | dose: 44.0 mg/kg/injection, schedule: Q01DX005 (ip), vehicle: Klucel (hydroxypropylcellulose) (HPC) 100 % of control | [9] 100 % of control | [10] 91 % of control | [11] 91 % of control

CC1SC(C)SC(C(C)(C)O)S1 (configuration not stated)
inactive: [4] 100 % of control | [5] 100 % of control | [6] 100 % of control

CCN(CCNc1ccc(CO)c2sc3ccccc3c(=O)c12)CC(C)(C)O
inactive: dose: 265.0 mg/kg/injection, schedule: Q04DX003 (ip), vehicle: saline with Tween-80 123 % of control
active: dose: 400.0 mg/kg/injection, schedule: Q04DX003 (ip), vehicle: saline with Tween-80 159 % of control | dose: 600.0 mg/kg/injection, schedule: Q04DX003 (ip), vehicle: saline with Tween-80 185 % of control

COc1cc(/C=C\C(=O)c2cccc(O)c(=O)c2)cc(OC)c1OC
inactive: [12] 112 % of control | [13] 87 % of control

O=C1CN(CCCCl)CC(=O)N2Cc3ccccc3CN12
inactive: [4] 106 % of control | [5] 101 % of control | [6] 99 % of control

O=C1NC(O)c2cccc([N+](=O)[O-])c2O1 (configuration not stated)
inactive: [4] 100 % of control | [5] 105 % of control | [6] 110 % of control

CCO/C(C)=C(\C#N)C(Cl)=Nc1ccc(OC)cc1
inactive: dose: 100.0 mg/kg/injection, schedule: Q04DX002 (ip), vehicle: saline with Tween-80 108 % of control | dose: 200.0 mg/kg/injection, schedule: Q04DX002 (ip), vehicle: saline with Tween-80 101 % of control | dose: 400.0 mg/kg/injection, schedule: Q04DX002 (ip), vehicle: saline with Tween-80 100 % of control

COC(=O)C(=O)C(C(=O)c1cccc2ccccc12)c1nc2n(c1O)C(=N)N=N2 (configuration not stated)
inactive: [15] 109 % of control | [16] 104 % of control | [17] 100 % of control
